Earlier results as cited in patent publication US20080107740A1, “Pharmaceutical composition comprising salmeterol and budesonide for the treatment of respiratory disorders” (GALEPHAR M/F, priority 2001, published 2008).

Legend:
[1] = system: patients with reversible obstructive respiratory disease
[2] = inhaled, administered after or before inhaled corticosteroids

For `OCc1cc(C(O)CNCCCCCCOCCCCc2ccccc2)ccc1O` (stereo not shown) [Salmeterol], the “onset of significant bronchodilation” value ([1]; after inhalation) is listed as “within minutes”, the “time to maximal bronchodilation” value ([1]; after inhalation) is listed as no more than 2 h and the duration of bronchodilation ([1]; inhalation, patients with reversible obstructive respiratory disease) is listed as “up to 12 hours”. The tolerability [2] was “well tolerated”.
